The source of these data is patent publication US7182954B1, “Prebiotic oligosaccharides via alternansucrase acceptor reactions” (priority 2003, dated 2007).

Experiment [1] has as its system Bifidobacterium adolescentis 15703. Kind of experiment: Oligosaccharide utilization (growth) by colonic bacteria. The class given is cell-based. The note with it: 0.5% oligosaccharide preparation, anaerobic, 5 days, 37° C.
Experiment [2] has as its system Bifidobacterium adolescentis 15704. The description is as above. It is filed as cell-based. The note with it: 0.5% oligosaccharide preparation, anaerobic, 5 days, 37° C.
The subject of experiment [3] is Bifidobacterium bifidum 29521. Described as above. It is filed as cell-based. The conditions noted are these: 0.5% oligosaccharide preparation, anaerobic, 5 days, 37° C.
In another experiment the test system is Lactobacillus casei 393. The experiment is described as above. The note with it: 0.5% oligosaccharide preparation, anaerobic, 5 days, 37° C. The class given is cell-based.
For experiment [4], the system named is Bifidobacterium thermophilum 25866. The description is as above. The class given is cell-based. The conditions noted are these: 0.5% oligosaccharide preparation, anaerobic, 5 days, 37° C.
Experiment [5] concerns Bifidobacterium ruminantium 4939. The experiment is described as above. It is filed as cell-based. The conditions noted are these: 0.5% oligosaccharide preparation, anaerobic, 5 days, 37° C.
The test system of experiment [6] is Salmonella typhimurium 14028. The description is as above. The class given is cell-based, Salmonella choleraesuis (typhimurium). The note with it: 0.5% oligosaccharide preparation, anaerobic, 5 days, 37° C.
The test system of experiment [7] is Bifidobacterium breve 15698. The description is as above. The conditions noted are these: 0.5% oligosaccharide preparation, anaerobic, 5 days, 37° C. It is filed as cell-based.
Experiment [8] relates to Bifidobacterium boum 27917. The experiment is described as above. It is filed as cell-based. The note with it: 0.5% oligosaccharide preparation, anaerobic, 5 days, 37° C.
Experiment [9] deals with Bifidobacterium catenulatum 27539. Described as above. It is filed as cell-based. The conditions noted are these: 0.5% oligosaccharide preparation, anaerobic, 5 days, 37° C.
The subject of experiment [10] is Bifidobacterium infantis 15697. The description is as above. It is filed as cell-based. The conditions noted are these: 0.5% oligosaccharide preparation, anaerobic, 5 days, 37° C.
The test system of experiment [11] is Clostridium perfringens 13124. The class given is cell-based. The note with it: 0.5% oligosaccharide preparation, anaerobic, 5 days, 37° C.
For experiment [12], the system named is Enterobacter aerogenes 35028. In words: Oligosaccharide utilization (growth) by colonic bacteria. The note with it: 0.5% oligosaccharide preparation, anaerobic, 5 days, 37° C. The class given is cell-based.
In experiment [13] the test system is Lactobacillus acidophilus 4356. The description is as above. It is filed as cell-based. The conditions noted are these: 0.5% oligosaccharide preparation, anaerobic, 5 days, 37° C.
Experiment [14] concerns Bacteroides thetaiotaomicron 29148. The class given is cell-based. The conditions noted are these: 0.5% oligosaccharide preparation, anaerobic, 5 days, 37° C.
Experiment [15] deals with Bifidobacterium adolescentis 15705. Kind of experiment: Oligosaccharide utilization (growth) by colonic bacteria. The conditions noted are these: 0.5% oligosaccharide preparation, anaerobic, 5 days, 37° C. It is filed as cell-based.
The subject of experiment [16] is Bifidobacterium gallicum 49850. The experiment is described as above. The class given is cell-based. The conditions noted are these: 0.5% oligosaccharide preparation, anaerobic, 5 days, 37° C.
Experiment [17] concerns Bifidobacterium adolescentis 15706. The description is as above. The class given is cell-based. The note with it: 0.5% oligosaccharide preparation, anaerobic, 5 days, 37° C.
The test system of another experiment is Escherchia coli 8739. The description is as above. The conditions noted are these: 0.5% oligosaccharide preparation, anaerobic, 5 days, 37° C. The class given is cell-based, Escherichia coli.
Experiment [18] has as its system Bifidobacterium longum 15707. The description is as above. It is filed as cell-based. The conditions noted are these: 0.5% oligosaccharide preparation, anaerobic, 5 days, 37° C.
Experiment [19] has as its system Bifidobacterium pseudocatenulatum 27919. The description is as above. It is filed as cell-based. The conditions noted are these: 0.5% oligosaccharide preparation, anaerobic, 5 days, 37° C.
Another experiment has as its system Lactobacillus GG 53103. The experiment is described as above. It is filed as cell-based, Lactobacillus rhamnosus GG. The conditions noted are these: 0.5% oligosaccharide preparation, anaerobic, 5 days, 37° C.
Another experiment relates to alternansucrase. Kind of experiment: Comparison of acceptor strengths with alternansucrase, relative amount of alternan formed. The note with it: for Alternan (Rel. %): 45 μL 10% (w/v) sucrose, 45 μL 10% (w/v) acceptor, 10 μL alternansucrase, pH 5.4, room temperature, less alternan = stronger acceptor; for acceptor strength for alternansucrase, in words: text summary of Table I.

For `O=C[C@H](O)[C@@H](O)[C@H](O)[C@H](O)CO` [D-glucose], the “Growth (OD600 nm), Bifidobacterium adolescentis 15703” value in [1] was “+++ (OD600 nm ≧ 0.60, high growth)”. Moreover, in experiment [2], the “Growth (OD600 nm), Bifidobacterium adolescentis 15704” value is “+++ (OD600 nm ≧ 0.60, high growth)”. In [3], the “Growth (OD600 nm), Bifidobacterium bifidum 29521” value was “+++ (OD600 nm ≧ 0.60, high growth)”. In addition, the “Growth (OD600 nm), Lactobacillus casei 393” value in the experiment with Lactobacillus casei 393 is recorded as “+++ (OD600 nm ≧ 0.60, high growth)”. Further, the “Growth (OD600 nm), Bifidobacterium thermophilum 25866” value in experiment [4] is given as “+++ (OD600 nm ≧ 0.60, high growth)”. Moreover, in experiment [5], the “Growth (OD600 nm), Bifidobacterium ruminantium 4939” value is “+++ (OD600 nm ≧ 0.60, high growth)”. Besides, in [6], the “Growth (OD600 nm), Salmonella typhimurium 14028” value was “++ (OD600 nm 0.31–0.59, medium growth)”. Besides, the “Growth (OD600 nm), Bifidobacterium breve 15698” value in [7] is “+++ (OD600 nm ≧ 0.60, high growth)”. The “Growth (OD600 nm), Bifidobacterium boum 27917” value in experiment [8] was “+++ (OD600 nm ≧ 0.60, high growth)”. Besides, in experiment [9], the “Growth (OD600 nm), Bifidobacterium catenulatum 27539” value is “+++ (OD600 nm ≧ 0.60, high growth)”. For the same molecule, in experiment [10], the “Growth (OD600 nm), Bifidobacterium infantis 15697” value is “+++ (OD600 nm ≧ 0.60, high growth)”. In addition, the “Growth (OD600 nm), Clostridium perfringens 13124” value in experiment [11] was “+++ (OD600 nm ≧ 0.60, high growth)”. In experiment [12], the “Growth (OD600 nm), Enterobacter aerogenes 35028” value is given as “+++ (OD600 nm ≧ 0.60, high growth)”. Also, the “Growth (OD600 nm), Lactobacillus acidophilus 4356” value in [13] is on record as “+++ (OD600 nm ≧ 0.60, high growth)”. Moreover, the “Growth (OD600 nm), Bacteroides thetaiotaomicron 29148” value in [14] is given as “++ (OD600 nm 0.31–0.59, medium growth)”. Besides, the “Growth (OD600 nm), Bifidobacterium adolescentis 15705” value in experiment [15] is listed as “+++ (OD600 nm ≧ 0.60, high growth)”. Also, the “Growth (OD600 nm), Bifidobacterium gallicum 49850” value in experiment [16] is recorded as “+++ (OD600 nm ≧ 0.60, high growth)”. The “Growth (OD600 nm), Bifidobacterium adolescentis 15706” value in experiment [17] was “+++ (OD600 nm ≧ 0.60, high growth)”. Further, in the experiment on Escherchia coli 8739, the “Growth (OD600 nm), Escherchia coli 8739” value is recorded as “+++ (OD600 nm ≧ 0.60, high growth)”. Also, in experiment [18], the “Growth (OD600 nm), Bifidobacterium longum 15707” value is listed as “+++ (OD600 nm ≧ 0.60, high growth)”. Besides, the “Growth (OD600 nm), Bifidobacterium pseudocatenulatum 27919” value in [19] was “+++ (OD600 nm ≧ 0.60, high growth)”. In the experiment on Lactobacillus GG 53103, the “Growth (OD600 nm), Lactobacillus GG 53103” value is reported as “+++ (OD600 nm ≧ 0.60, high growth)”. Besides, the “Alternan (Rel. %)” value in the experiment on alternansucrase was 53 Rel. %.
Consider `OC[C@H]1O[C@H](OC[C@H]2O[C@H](O[C@]3(CO)O[C@H](CO)[C@@H](O)[C@@H]3O)[C@H](O)[C@@H](O)[C@@H]2O)[C@H](O)[C@@H](O)[C@H]1O` [raffinose], for which, in the experiment on alternansucrase, the “Alternan (Rel. %)” value came to 67 Rel. % and the “acceptor strength for alternansucrase, in words” value (“acceptor strength” below) is “relatively good acceptors”.
As for `OC[C@H]1O[C@@H](O[C@H]2C(O)O[C@H](CO)[C@@H](O)[C@@H]2O)[C@H](O)[C@@H](O)[C@@H]1O` (stereo partly drawn) [sophorose], the “Alternan (Rel. %)” value in the experiment on alternansucrase turned out to be 80 Rel. %.
For the molecule `OC[C@@H](O)[C@@H](O)[C@H](O)[C@@H](O)CO` [sorbitol], in the experiment on alternansucrase, the “Alternan (Rel. %)” value amounted to 82 Rel. %.
On the same count and under the same terms, in the case of `OC[C@H]1O[C@H](OC[C@H]2O[C@H](OC[C@H]3O[C@H](O[C@]4(CO)O[C@H](CO)[C@@H](O)[C@@H]4O)[C@H](O)[C@@H](O)[C@@H]3O)[C@H](O)[C@@H](O)[C@H]2O)[C@H](O)[C@@H](O)[C@H]1O` [stachyose] it was 89 Rel. %.
With `OC[C@H]1O[C@@](CO)(O[C@H]2O[C@H](CO[C@H]3O[C@H](CO)[C@@H](O)[C@H](O)[C@H]3O)[C@@H](O)[C@H](O)[C@H]2O)[C@@H](O)[C@@H]1O` [theanderose], the “Alternan (Rel. %)” value with alternansucrase is 42 Rel. %.
Same read-out and setting: the result for `O=C(CO)[C@@H](O[C@H]1O[C@H](CO)[C@@H](O)[C@H](O)[C@H]1O)[C@H](O)[C@H](O)CO` [turanose] reads 57 Rel. %; that for `OC[C@@H](O)[C@H](O)[C@@H](O)CO` [xylitol], 97 Rel. %.
With `OC[C@H]1O[C@H](O[C@H]2O[C@H](CO)[C@@H](O)[C@H](O)[C@H]2O)[C@H](O)[C@@H](O)[C@@H]1O` [α,α-trehalose], in the experiment with alternansucrase, the “Alternan (Rel. %)” value stood at 102 Rel. % and the “acceptor strength” value is recorded as “not an acceptor”.
Consider `CO[C@H]1O[C@H](CO)[C@H](O)[C@H](O)[C@H]1O` [α-methyl-D-galactoside, α-methyl-D-galactopyranoside], for which the “Alternan (Rel. %)” value in the experiment with alternansucrase is 73 Rel. %.
Regarding `CO[C@H]1O[C@H](CO)[C@@H](O)[C@H](O)[C@H]1O` [α-methyl-D-glucoside, α-methyl-D-glucopyranoside], the “Alternan (Rel. %)” value in the experiment on alternansucrase is on record as 20 Rel. %.
With `CO[C@H]1O[C@H](CO)[C@@H](O)[C@H](O)[C@@H]1O` [α-methyl-D-mannoside, α-methyl-D-mannopyranoside], the “Alternan (Rel. %)” value in the experiment with alternansucrase turned out to be 70 Rel. %.
`CCCCCCCCCCCCO[C@@H]1O[C@H](CO)[C@@H](O[C@H]2O[C@H](CO)[C@@H](O)[C@H](O)[C@H]2O)[C@H](O)[C@H]1O` [β-dodecyl maltoside]: the “Alternan (Rel. %)” value in the experiment on alternansucrase amounted to 83 Rel. %.
Same read-out and setting: the result for `CO[C@@H]1O[C@H](CO)[C@H](O)[C@H](O)[C@H]1O` [β-methyl-D-galactoside, β-methyl-D-galactopyranoside] reads 94 Rel. %.
In the case of `CO[C@@H]1O[C@H](CO)[C@@H](O)[C@H](O)[C@H]1O` [β-methyl-D-glucoside], the “Alternan (Rel. %)” value with alternansucrase is listed as 60 Rel. %.
Regarding `CO[C@@H]1O[C@H](CO)[C@@H](O)[C@H](O)[C@@H]1O` [β-methyl-D-mannoside], in the experiment with alternansucrase, the “Alternan (Rel. %)” value is 89 Rel. %.
Regarding `COC1OCC(O)C(O)C1O` [β-methyl-D-xyloside], the “Alternan (Rel. %)” value in the experiment on alternansucrase is recorded as 96 Rel. %.
Regarding `CCCCCCCCO[C@@H]1O[C@H](CO)[C@@H](O)[C@H](O)[C@H]1O` [β-octyl D-glucoside, β-octyl-D-glucopyranoside], the “Alternan (Rel. %)” value in the experiment on alternansucrase was 52 Rel. %.
Take gentiobiose: in the experiment with alternansucrase, the “Alternan (Rel. %)” value is recorded as 25 Rel. % and the “acceptor strength” value is reported as “surprisingly good acceptor”.
As for maltotriose, in the experiment with alternansucrase, the “Alternan (Rel. %)” value stood at 65 Rel. %.
